Experiment [1] addresses purified recombinant human BTK protein (Homo sapiens (Human), UniProt Q06187). Briefly: Measurement of BTK inhibitory activity (in vitro). It counts as biochemical. The note with it: FL-PEPTIDE 2 substrate 1 μM, ATP 45 μM, 40 minutes at 25° C. An excerpt: With regard to the setting of the conditions for a method for measuring the inhibitory activity of a compound against BTK kinase activity in vitro, it is described in the consumable reagent supplies price list for LabChip (registered trademark) series of PerkinElmer, Inc. that FL-PEPTIDE 2 corresponds to a substrate peptide for the measurement of BTK kinase activity. Therefore, FL-PEPTIDE 2 was used as a substrate. The purified recombinant human BTK protein used in the test was purchased from Carna Biosciences, Inc.
With regard to the measurement of the inhibitory activity of the compounds, firstly, the compounds of the present invention were diluted stepwise with dimethyl sulfoxide (DMSO). Subsequently, BTK protein, a substrate peptide (final concentration was 1 μM), magnesium chloride (final concentration was 10 mM), ATP (final concentration was 45 μM), and a DMSO solution of the compounds of the present invention (final concentration of DMSO was 5%) were added to a buffer solution for kinase reaction (20 mM HEPES (pH 7.5), 2 mM dithiotheitol, 0.01% Triton X-100), and after the solution was incubated for 40 minutes at 25° C., a kinase reaction was carried out. The reaction was terminated by adding EDTA thereto in order to obtain a final concentration of 30 mM. Finally, a substrate peptide that was not phosphorylated (S) and a phosphorylated peptide (P) were separated and detected by microchannel capillary electrophoresis using a LabChip EZ Reader II (PerkinElmer, Inc.).

Experiment [2] has as its system A431 cells / TMD8 cells. Briefly: Proliferation inhibitory activity against cell lines expressing BTK and EGFR (in vitro), comparison of selectivity. It counts as cell-based, human. As to conditions: ratio from GI50 (nM), 3 days culture, CELLTITER GLO. An excerpt:
TMD8 cells, which are of a diffuse large B-cell lymphoma cell line expressing BTK, were suspended in RPMI1640 medium (manufactured by Life Technologies Corp.) containing 10% fetal bovine serum. A431 cells, which are of an EGFR-overexpressing, highly activated human epidermoid carcinoma cell line, were suspended in DMEM, high glucose medium (manufactured by Life Technologies Corp.) containing 10% fetal bovine serum. The cell suspensions were inoculated into each well of 384-well flat-bottomed microplates, and the cells were cultured for 1 day at 37° C. in an incubator containing 5% carbon dioxide gas. […] A DMSO solution of the test compounds was diluted with the medium used in the suspension of the each cells, and this was added to each of the wells of the cell culture plates such that the final concentration of DMSO would be 0.2%. The cells were further cultured for 3 days at 37° C. in an incubator containing 5% carbon dioxide gas. […] Proliferation inhibition ratio (%)=(C−T)/(C−C0)×100
T: Luminescence intensity of a well in which the test compound was added
C: Luminescence intensity of a well in which the test compound was not added
C0: Luminescence intensity of a well measured before the addition of the test compound
When a comparison is made between the cell proliferation inhibitory activity against A431 cells that depends on the EGFR proliferation signaling and the cell proliferation inhibitory activity against TMD8 cells that depends on the BTK proliferation signaling, the influence of the respective kinases at a cellular level is able to be evaluated. That is, when the “A431 cell proliferation inhibition ratio/TMD8 cell proliferation inhibition ratio” is calculated, it is contemplated that as the value of the ratio is larger, the selectivity to BTK over EGFR in the cells is higher.
Background: ATP-based viability assays read luminescence as a measure of living cells.

19 compounds from US9580432B2, “Fused pyrimidine compound or salt thereof” (TAIHO PHARMACEUTICAL CO., LTD., priority 2013, dated 2017) can be followed below.

Bounds are passed on as bounds.

purified recombinant human BTK protein, sequence (Q06187 whole entry): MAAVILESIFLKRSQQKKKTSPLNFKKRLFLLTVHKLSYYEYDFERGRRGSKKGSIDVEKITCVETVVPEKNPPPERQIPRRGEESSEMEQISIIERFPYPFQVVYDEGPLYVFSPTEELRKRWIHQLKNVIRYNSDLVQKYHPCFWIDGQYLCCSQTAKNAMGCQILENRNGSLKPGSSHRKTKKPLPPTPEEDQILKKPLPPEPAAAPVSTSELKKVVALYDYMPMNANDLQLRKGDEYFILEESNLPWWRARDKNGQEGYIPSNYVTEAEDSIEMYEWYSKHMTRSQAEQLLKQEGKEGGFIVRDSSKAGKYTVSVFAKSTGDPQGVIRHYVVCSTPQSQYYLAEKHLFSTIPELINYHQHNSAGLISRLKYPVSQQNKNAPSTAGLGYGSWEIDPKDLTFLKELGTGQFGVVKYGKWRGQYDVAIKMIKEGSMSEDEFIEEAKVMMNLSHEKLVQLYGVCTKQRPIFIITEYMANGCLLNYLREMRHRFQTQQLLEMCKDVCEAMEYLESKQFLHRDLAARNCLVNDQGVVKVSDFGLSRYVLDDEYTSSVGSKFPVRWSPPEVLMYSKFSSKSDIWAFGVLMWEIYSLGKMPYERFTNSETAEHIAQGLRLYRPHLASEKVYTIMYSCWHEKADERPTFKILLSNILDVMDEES

For the compound `C=CC(=O)N1CCC[C@@H](n2nc(C(=O)Nc3nc4cc(-c5cccs5)ccc4o3)c3c(N)ncnc32)C1` [Example 3, (R)-1-(1-acryloylpiperidin-3-yl)-4-amino-N-(5-(thiophen-2-yl)benzo[d]oxazol-2-yl)-1H-pyrazolo[3,4-d]pyrimidine-3-carboxamide], the IC50 – broadly, the concentration that inhibits the measured activity by half – in experiment [1] was 0.443 nM.
Consider `C=CC(=O)N1CC[C@@H](n2nc(C(=O)Nc3nc4cc(-c5ccccc5)ccc4o3)c3c(N)ncnc32)C1` [Example 41, (R)-1-(1-acryloylpyrrolidin-3-yl)-4-amino-N-(5-phenylbenzo[d]oxazol-2-yl)-1H-pyrazolo[3,4-d]pyrimidine-3-carboxamide], for which the “A431 cell proliferation inhibition ratio/TMD8 cell proliferation inhibitio ratio” value in experiment [2] came out at 1667.7.
With `CCN(CC)C/C=C/C(=O)N1CC[C@@H](n2cc(C(=O)Nc3nc4cc(-c5ccccc5)ccc4o3)c3c(N)ncnc32)C1` [Example 58, (R,E)-4-amino-N-(5-phenylbenzo[d]oxazol-2-yl)-7-(1-(4-(diethylamino)but-2-enoyl)pyrrolidin-3-yl) 7H-pyrrolo[2,3-d]pyrimidine-5-carboxamide], the IC50 in experiment [1] was found to be 1.84 nM.
The same measure, in the same setting: the same measure for `C=CC(=O)N1CC[C@@H](n2nc(C(=O)Nc3nc4cc(C(F)(F)F)ccc4o3)c3c(N)ncnc32)C1` [Example 43, (R)-1-(1-acryloylpyrrolidin-3-yl)-4-amino-N-(5-(trifluoromethyl)benzo[d]oxazol-2-yl)-1H-pyrazolo[3,4-d]pyrimidine-3-carboxamide]: 0.546 nM; for `C=CC(=O)N1CCC[C@@H](n2nc(C(=O)Nc3nc4cccc(Cl)c4o3)c3c(N)ncnc32)C1` [Example 64, (R)-1-(1-acryloylpiperidin-3-yl)-4-amino-N-(7-chlorobenzo[d]oxazol-2-yl)-1H-pyrazolo[3,4-d]pyrimidine-3-carboxamide]: 8.09 nM.
On the same count and under the same terms, the same measure for `C=CC(=O)N1CC[C@@H](n2cc(C(=O)Nc3nc4cc(-c5ccccc5)ccc4o3)c3c(N)ncnc32)C1` [Example 55, (R)-7-(1-acryloylpyrrolidin-3-yl)-4-amino-N-(5-phenylbenzo[d]oxazol-2-yl)-7H-pyrrolo[2,3-d]pyrimidine-5-carboxamide]: 0.799 nM; for `Nc1ncnc2c1c(C(=O)Nc1nc3ccccc3o1)nn2[C@@H]1CCCN(C(=O)/C=C/CN2CCN(CCNC(=O)CCCC[C@@H]3SC[C@@H]4NC(=O)N[C@@H]43)CC2)C1` [Example P-2, 4-amino-N-(benzo[d]oxazol-2-yl)-1-((R)-1-((E)-4-(4-(2-(5-((3aS,4S,6aR)-2-oxohexahydro-1H-thieno[3,4-d]imidazol-4-yl)pentanamido)ethyl)piperazin-1-yl)but-2-enoyl)piperidin-3-yl)-1H-pyrazolo[3,4-d]pyrimidine-3-carboxamide]: 43.9 nM.
On to `C=CC(=O)N1CCC(n2nc(C(=O)Nc3nc4ccccc4o3)c3c(N)ncnc32)CC1` [Example 69, 1-(1-acryloylpiperidin-4-yl)-4-amino-N-(benzo[d]oxazol-2-yl)-1H-pyrazolo[3,4-d]pyrimidine-3-carboxamide], for which, in experiment [1], the IC50 came to 162 nM.
Turning to `C=CC(=O)N1CC[C@H](n2nc(C(=O)Nc3nc4ccccc4o3)c3c(N)ncnc32)C1` [Example 65, (S)-1-(1-acryloylpyrrolidin-3-yl)-4-amino-N-(benzo[d]oxazol-2-yl)-1H-pyrazolo[3,4-d]pyrimidine-3-carboxamide], the IC50 in experiment [1] worked out at 79 nM.
As to `C/C=C/C(=O)N1CCC[C@@H](n2nc(C(=O)Nc3nc4ccccc4o3)c3c(N)ncnc32)C1` [Example 14, (R,E)-4-amino-N-(benzo[d]oxazol-2-yl)-1-(1-(but-2-enoyl)piperidin-3-yl)-1H-pyrazolo[3,4-d]pyrimidine-3-carboxamide], the “A431 cell proliferation inhibition ratio/TMD8 cell proliferation inhibitio ratio” value in experiment [2] was above 1400.6.
Same read-out and setting: as for `C=CC(=O)N1CC[C@@H](n2nc(C(=O)Nc3nc4ccccc4o3)c3c(N)ncnc32)C1` [Example 27, (R)-1-(1-acryloylpyrrolidin-3-yl)-4-amino-N-(benzo[d]oxazol-2-yl)-1H-pyrazolo[3,4-d]pyrimidine-3-carboxamide], the figure is 4155.9.
Take `CC1=CC(C)=[N+]2C1=Cc1ccc(CCC(=O)NCCN3CCN(C/C=C/C(=O)N4CCC[C@@H](n5nc(C(=O)Nc6nc7ccccc7o6)c6c(N)ncnc65)C4)CC3)n1[B-]2(F)F` [Example P-1, (R,E)-7-(3-((2-(4-(4-(3-(4-amino-3-(benzo[d]oxazol-2-ylcarbamoyl)-1H-pyrazolo[3,4-d]pyrimidin-1-yl)piperidin-1-yl)-4-oxobut-2-en-1-yl)piperazin-1-yl)ethyl)amino)-3-oxopropyl) 5,5-difluoro-1,3-dimethyl-5H-dipyrrolo[1,2-c:2′,1′-f][1,3,2]diazaborinin-4-ium-5-uide]: the IC50 in experiment [1] came out at 31.4 nM.
Regarding `CN(C)C/C=C/C(=O)N1CCC[C@@H](n2nc(C(=O)Nc3nc4cc(-c5cccs5)ccc4o3)c3c(N)ncnc32)C1` [Example 21, (R,E)-4-amino-N-(5-(thiophen-2-yl)benzo[d]oxazol-2-yl)-1-(1-(4-(dimethylamino)but-2-enoyl)piperidin-3-yl)-1H-pyrazolo[3,4-d]pyrimidine-3-carboxamide], the “A431 cell proliferation inhibition ratio/TMD8 cell proliferation inhibitio ratio” value in experiment [2] is 4909.1.
In the case of `C=CC(=O)N1CC[C@@H](n2nc(C(=O)Nc3nc4cc(-c5ccc(Cl)cc5)ccc4o3)c3c(N)ncnc32)C1` [Example 31, (R)-1-(1-acryloylpyrrolidin-3-yl)-4-amino-N-(5-(4-chlorophenyl)benzo[d]oxazol-2-yl)-1H-pyrazolo[3,4-d]pyrimidine-3-carboxamide], in experiment [1], the IC50 worked out at 1.67 nM.
`C=CC(=O)N1CC(n2nc(C(=O)Nc3nc4ccccc4o3)c3c(N)ncnc32)C1` [Example 74, 1-(1-acryloylazetidin-3-yl)-4-amino-N-(benzo[d]oxazol-2-yl)-1H-pyrazolo[3,4-d]pyrimidine-3-carboxamide]: the IC50 in experiment [1] was determined as 21.4 nM.
Regarding `C=CC(=O)N1CCC[C@@H](n2nc(C(=O)Nc3nc4cc(CCOC)ccc4o3)c3c(N)ncnc32)C1` [Example 8, (R)-1-(1-acryloylpiperidin-3-yl)-4-amino-N-(5-(2-methoxyethyl)benzo[d]oxazol-2-yl)-1H-pyrazolo[3,4-d]pyrimidine-3-carboxamide], in experiment [2], the “A431 cell proliferation inhibition ratio/TMD8 cell proliferation inhibitio ratio” value is recorded as 25303.8.
In the case of `C=CC(=O)N1CCC[C@@H](n2nc(C(=O)Nc3nc4cc(OC)ccc4o3)c3c(N)ncnc32)C1` [Example 7, (R)-1-(1-acryloylpiperidin-3-yl)-4-amino-N-(5-methoxybenzo[d]oxazol-2-yl)-1H-pyrazolo[3,4-d]pyrimidine-3-carboxamide], the “A431 cell proliferation inhibition ratio/TMD8 cell proliferation inhibitio ratio” value in experiment [2] was 5440.9.
In the case of `C=CC(=O)N1CCC(n2nc(C(=O)Nc3nc4cc(Cl)ccc4o3)c3c(N)ncnc32)C1` (stereo not shown) [Example 84, 1-(1-acryloylpyrrolidin-3-yl)-4-amino-N-(5-chlorobenzo[d]oxazol-2-yl)-1H-pyrazolo[3,4-d]pyrimidine-3-carboxamide], the “A431 cell proliferation inhibition ratio/TMD8 cell proliferation inhibitio ratio” value in experiment [2] is given as above 7132.7.
Consider `CCN(C)C/C=C/C(=O)N1CC[C@@H](n2nc(C(=O)Nc3nc4cc(Cl)ccc4o3)c3c(N)ncnc32)C1` [Example 33, (R,E)-4-amino-N-(5-chlorobenzo[d]oxazol-2-yl)-1-(1-(4-(ethyl(methyl)amino)but-2-enoyl)pyrrolidin-3-yl)-1H-pyrazolo[3,4-d]pyrimidine-3-carboxamide], for which the IC50 in experiment [1] stood at 0.887 nM.
